According to patent US9700578B2, “Use of nitrite salts for the treatment of cardiovascular conditions” (The United States of America as represented by the …, priority 2003, dated 2017):
Several values for one entry are separate records, joined by “and”; a condition that tells them apart may be missing. Equal values may be shown once. Read-outs that look alike come from different tables or passages of the source.

Tests used:
[1] = 48 nmoles of nitrite, n=3; before 594±83
[2] = test system: myocardial ischemia-reperfusion injury
Experimental: Briefly, mice were anesthetized with intraperitoneal injections of ketamine (50 mg/kg) and pentobarbital sodium (50 mg/kg). The animals were then attached to a surgical board with their ventral side up. […] The mice were supplemented with 100% oxygen via the ventilator side port. A median sternotomy was performed using an electric cautery and the proximal left main coronary artery was visualized and completely ligated with 7-0 silk suture mounted on a tapered needle (BV-1 ethicon). In the initial experiments of myocardial infarct size coronary occlusion was maintained for 30-minutes followed by removal of suture and reperfusion for 24 hours. […] In these experiments, two-dimensional echocardiography was performed at baseline and again at 48 hours of reperfusion.
At 24 hours of reperfusion, the mice were anesthetized as described previously, intubated, and connected to a rodent ventilator. A catheter (PE-10 tubing) was placed in the common carotid artery to allow for Evans Blue dye injection. A median sternotomy was performed and the left main coronary artery was re-ligated in the same location as before Evans Blue dye (1.2 mL of a 2.0% solution, Sigma Chemical Co.) was injected into the carotid artery catheter into the heart to delineate the ischemic zone from the nonischemic zone. The heart was rapidly excised and serially sectioned along the long axis in five, 1 mm thick sections that were then incubated in 1.0% 2,3,5-triphenyltetrazolium chloride (Sigma Chemical Co.) for 5 minutes at 37° C. to demarcate the viable and nonviable myocardium within the risk zone.
Ventricular parameters were measured using leading-edge technique. M-mode (sweep speed=200 mm/sec) echocardiograms were captured from parasternal, short and long-axis 2D views of the left ventricle (LV) at the mid-papillary level. LV percent fractional shortening (FS) was calculated according to the following equation: LV % FS=((LVEDD−LVESD)/LVEDD)×100. All data were calculated from 10 cardiac cycles per experiment.

[3] = test system: hepatic ischemia-reperfusion injury; assay: Hepatic ischemia-reperfusion (I/R) injury; type: in vivo, mice
Experimental: Carboxy-PTIO [2-(4-Carboxyphenyl)-4,4,5,5-tetramethylimidazoline-1-oxyl-3-oxide potassium salt], a direct intravascular NO scavenger, was utilized to inhibit NO dependent effects following hepatic I/R injury. Carboxy-PTIO (Alexis Biochemicals) was dissolved in phosphate buffered saline and administered intravenously at a dose of 1 mg/Kg in a volume of 50 μL at 30 minutes prior to hepatic ischemia Zinc(II) Deuteroporphyrin IX-2,4-bisethyleneglycol (ZnDBG) (Alexis Biochemicals), a heme oxygenase-1 inhibitor was injected i.p. at a dose of 10 mg/Kg in a volume of 50 μL at 30 minutes prior to the induction of hepatic ischemia.
All of the mice utilized in the present studies were C57BL6/J at 8-10 weeks of age obtained from the Jackson Laboratories (Bar Harbor, Me.). In additional experiments of hepatic I/R injury we utilized mice completely deficient (−/−) in endothelial nitric oxide synthase (eNOS). eNOS−/− mice were originally generously donated from Dr. Paul Huang (Mass. General Hospital) and generated in our breeding colony at LSU-Health Sciences Center. eNOS−/− mice were utilized at 8-10 weeks of age.
The hepatic I/R protocol is depicted in FIG. 6A and has been described previously (Hines et al., Biochem Biophys Res Commun 284:972-976, 2001; Hines et al., Am J Physiol Gastrointest Liver Physiol 284:G536-545, 2001). Mice were anesthetized with the combination of ketamine (100 mg/kg) and zylazine (8 mg/kg) and a midline laparotomy was performed to expose the liver. Mice were then injected with heparin (100 μg/kg, i.p.) to prevent blood clotting. The left lateral and median lobes of the liver were rendered ischemic by completely clamping the hepatic artery and the portal vein using microaneurysm clamps. This experimental model results in a segmental (70%) hepatic ischemia. This method of partial ischemia prevents mesenteric venous congestion by allowing portal decompression throughout the right and caudate lobes of the liver. The liver was then repositioned in the peritoneal cavity in its original location for 45 minutes. The liver was kept moist using gauze soaked in 0.9% normal saline. In addition, body temperature was maintained at 37° C. using a heat lamp and monitoring body temperature with a rectal temperature probe. Sham surgeries were identical except that hepatic blood flow was not reduced with a microaneurysm clamp. The duration of hepatic ischemia was 45 minutes in all experiments, following which the microaneurysm clamps were removed. The duration of hepatic reperfusion was 5 hours in the studies of serum liver transaminase levels (i.e., AST or ALT) and 24 hours for the studies of liver histopathology (such as hepatocellular infarction).
Serum samples were analyzed for aspartate aminotransferase (AST) and alanine aminotransferase (ALT) using a spectrophotometric method (Sigma Chemical Co., St. Louis, Mo.) (Harada et al., Proc Natl Acad Sci USA 100:739-744, 2003). These enzymes are liver specific and are released from the liver during injury (Hines et al., Biochem Biophys Res Commun 284:972-976, 2001; Hines et al., Am J Physiol Gastrointest Liver Physiol 284:G536-545, 2001). […]

forearm circulation = conditions: concentrations of 200 μM in the forearm, Lauer et al.; cited from earlier work
[4] = test system: hypoxic-induced pulmonary hypertension; conditions: for decrease in pulmonary artery pressure from hypoxic level: FiO2 0.12, nebulized 270 μmol/minute for 20 minutes, n=7
hemoglobin = hemoglobin (Homo sapiens, UniProt P68871+P69905)
[5] = 48 nmoles into left ventricular cavity 5 min prior to reperfusion, versus 48 nmoles nitrate
[6] = 45 minutes ischemia, 48 hours reperfusion
[7] = 200 μM regional concentration, transit time less than 10 seconds

## O=NO [sodium nitrite]
[1]
  blood nitrite level after treatment: 727 ± 40 nM
[2]; [5]
  reduction of myocardial infarct size per area-at-risk: 67%
  reduction of myocardial infarct size per left ventricle: 67%
[2]; [6]
  left ventricular fractional shortening versus vehicle group: significantly (p<0.02) greater
  myocardial ejection fraction versus baseline: remained essentially unchanged
[3]; 1.2 nmoles added nitrite
  calculated blood level at which a protective effect was observed: 600 nM
[3]; 48 nmoles added nitrite, 2 mL blood volume
  calculated systemic concentration of peak effect on AST and ALT: 24 µM
[3]; 24 μM (48 nmoles), versus saline and nitrate treated animals
  hepatocellular injury (histopathology) at 24 hours of reperfusion: significantly reduced
[3]; 45 minutes ischemia, 24 hours reperfusion
  hepatocellular apoptosis (TUNEL): significantly (p<0.001) attenuated
[3]; heme oxygenase 1 inhibitor pre-treatment, nitrite 24 μM
  tissue injury in mice pre-treated with ZnDPBG (serum AST): significantly limited tissue injury
[3]; hepatic I/R
  near-physiological nitrite concentration with highly significant protective effects: 0.6 μM
[3]; intraperitoneal during hepatic ischemia, 45 min ischemia, 5 h reperfusion, nitrite 1.2-480 nmoles, nitrate 48 nmoles
  serum elevations of liver transaminases AST and ALT: dose-dependently limited
[3]; mouse, in vivo
  cytoprotection in eNOS deficient mice (serum AST): significant nitrite cytoprotection
Forearm circulation
  vasodilatory effect in human forearm: no vasodilatory effects
[4]
  decrease in pulmonary artery pressure from hypoxic level: ~60%
[4]; listed as nitrite
  decrease in pulmonary artery pressure from hypoxic level: ~60% and 63+/−3%
[4]; versus preceding ten minutes of hypoxia
  cardiac output, arterial oxyhemoglobin saturation and methemoglobin levels: did not change measurably
hemoglobin; 36 μmol/min, at rest, baseline 55.7±11.4
  iron-nitrosylated-hemoglobin in the ipsilateral antecubital vein during nitrite infusion: 693.4 ± 216.9 nM
hemoglobin; [7]
  SNO-Hb produced across the forearm during exercise: ~200 nM
  iron-nitrosyl-hemoglobin produced across the forearm during exercise: approximately 750 nM
